This note sets out measurements from patent publication US6887873B2, “Triazine derivatives and their application as antitelomerase agents” (Aventis Pharma S.A., priority 2001, dated 2005).

Molecules are shown by their SMILES. Several values for one entry are separate records, joined by “and”; a condition that tells them apart may be missing. Equal entries are not always repeated.

In assay [1] the test system is G-quadruplex of oligonucleotide GGGTTAGGGTTAGGGTTAGGG (3.5 repeats of the human telomereic motif). As to the kind of experiment: G-quadruplex stabilizing activity, fluorescence Tm (FAM+DABCYL oligonucleotide). The format is binding. The text has this:
The G-quadruplex stabilizing activity may be determined by a method using the formation of a complex with fluorescein of which the experimental protocol is described below.
All the nucleotides, modified or otherwise, were synthesized by Eurogentec SA, Seraing, Belgium. The oligonucleotide FAM+DABCYL carries the catalogue reference OL-0371-0802. It has the sequence: […] corresponding to 3.5 repeats of the human telomereic motif (strand rich in G). The fluorescein is attached to the 5′ end, the DABCYL to the 3′ end, by the chemical arms described by Eurogentec. The concentration of the samples is checked by spectrophotometry, recording the absorbance spectrum between 220 and 700 nm and using the molar extinction coefficient provided by the supplier.
All the experiments were carried out in a 10 mM sodium cacodylate buffer pH 7.6 containing 0.1 M lithium chloride (or sodium chloride). The absence of fluorescent contamination in the buffer was checked beforehand. The fluorescent oligonucleotide is added at the final concentration of 0.2 μM.
All the measurements of fluorescence were carried out on a Spex Fluorolog DM1B apparatus, using an excitation line width of 1.8 nm and an emission line width of 4.5 nm. The samples are placed in a microquartz cuvette of 0.2×1 cm. The temperature of the sample is controlled by an external water bath. The oligonucleotide alone was analysed at 20, 30, 40, 50, 60, 70 and 80° C. The emission spectra are recorded using an excitation wavelength of 470 nm. The excitation spectra are recorded using either 515 nm or 588 nm as emission wavelength. The spectra are corrected for the response of the instrument by reference curves. A high extinction (80-90%) of the fluorescence of fluorescein at room temperature is observed, in agreement with an intramolecular folding of the oligonucleotide at 20° C. in the form of a G-quadruplex, which induces juxtaposition of its 5′ and 3′ ends which are respectively linked to fluorescein and to DABCYL. This juxtaposition causes an already-described phenomenon of extinction of fluorescence which is used for “molecular beacons”.
An oligonucleotide stock solution at the strand concentration of 0.2 μM in 0.1 M LiCl, 10 mM cacodylate buffer, pH 7.6, is prepared beforehand, heated briefly at 90° C. and slowly cooled to 20° C., and then distributed in aliquots of 600 μl in the fluorescence cuvettes. 3 μl of water (for the control) or 3 μl of test product (stock at 200 μM, final concentration 1 μM) are then added and mixed. The samples are then allowed to incubate for at least 1 hour at 20° C. before each measurement. The use of longer incubation times (up to 24 hours) has no influence on the result obtained.
Each experiment allows the measurement of only one sample. The latter is first incubated at an initial temperature of 20° C., heated to 80° C. over 38 minutes, left for 5 minutes at 80° C. and then cooled to 20° C. over 62 minutes. During this time, the fluorescence is measured simultaneously at two emission wavelengths (515 nm and 588 nm) using 470 nm as excitation wavelength. A measurement is carried out every 30 seconds. The temperature of the water bath is recorded in parallel, and the fluorescence profile as a function of the temperature is reconstituted from these values. The fluorescence profiles are then normalized between 20° C. and 80° C., and the temperature for which the intensity of emission at 515 nm is the mean of those at high and low temperature is called Tm. Under these conditions, the Tm of the reference sample without addition of product is 44° C. in a lithium chloride buffer. This temperature is increased to more than 55° C. in a sodium chloride buffer. The addition of a G-quadruplex-stabilizing compound induces an increase in the Tm. This increase is judged to be significant if it is greater than 3°.

Assay [2] has as its system human telomerease (HL60 cell extract). As to the kind of experiment: Antitelomerease activity: extension of oligonucleotide TS followed by PCR amplification, with HL60 extract. The assay is classed as biochemical. The note with it: read-out: TRAP IC50. How it is done: The antitelomerease biological activity is determined by the following experimental protocol:
The leukaemia line HL60 is obtained from ATCC (American Type Culture Collection, Rockville, USA). The cells are cultured in suspension in RPMI 1640 medium containing L-glutamine at 2 mM, penicillin 200 U/ml, streptomycin 200 μg/ml, gentamycin 50 μg/ml and supplemented with 10% heat-inactivated foetal calf serum.
An aliquot of 10^5 cells is centrifuged at 3000×G and the supernatant discarded. The cell pellet is resuspended by several successive pipettings in 200 μl of lysis buffer containing 0.5% CHAPS, 10 mM Tris-HCl, pH 7.5, 1 mM MgCl2, 1 mM EGTA, 5 mM β-mercaptoethanol, 0.1 mM PMSF and 10% glycerol and is stored in ice for 30 minutes. The lysate is centrifuged at 160,000×G for 20 minutes at 4° C. and 160 μl of supernatant are recovered. The proteins in the extract are assayed by the Bradford method. The extract is stored at −80° C.
The inhibition of the telomerease activity is determined by a protocol for extension of the oligonucleotide TS (^5′AATCGTTCGAGCAGAGTT^3′), in the presence of a cellular extract enriched in telomerease activity and compounds which are added at various concentrations (10, 1, 0.1 and 0.01 μM). The extension reaction is followed by a PCR amplification of the extension products with the aid of the oligonucleotides TS and CXext (^5′[…]^3′).
The reaction medium is prepared based on the following composition:
The oligonucleotides are obtained from Eurogentec (Belgium) and are stored at −20° C. at a stock concentration of 1 mg/ml in distilled water.
The reaction samples are assembled in 0.2 ml PCR tubes and one drop of paraffin oil is deposited on each of the reactions of the experiment before closing the tubes.
The reaction samples are then incubated in a Cetus 4800-type PCR apparatus under the following temperature conditions: • 15 minutes at 30° C., • 1 minute at 90° C., • followed by 30 cycles of, • 30 seconds at 94° C., • 30 seconds at 50° C., • and 1 minute 30 seconds at 72° C., • followed by a final cycle of 2 minutes at 72° C.
For each of the samples, an aliquot of 10 μl is pipetted under the oil layer and mixed with 5 μl of a loading buffer containing:
The samples are then analysed by electrophoresis on 12% acrylamide gel in a 1×TBE buffer for 1 hour at a voltage of 200 volts, with the aid of a Novex electrophoresis system.
The acrylamide gels are then dried on a sheet of Whatmann 3 mm paper at 80° C. for 1 hour.
The analysis and the quantification of the reaction products are carried out with the aid of an InstantImager apparatus (Pacard).
For each compound concentration tested, the results are expressed as percentage inhibition of the reaction and calculated from the untreated enzymatic control and from the enzyme-free sample (blank) according to the following formula: (compound value−blank value/enzymatic control value−blank value)×100.
The concentration of compound inducing a 50% inhibition of the telomerease reaction (IC50) is determined with the aid of a semilogarithmic graphical representation of the inhibition values obtained as a function of each of the compound concentrations tested.
A compound is considered to be active as an antitelomerease agent when the quantity inhibiting 50% of the telomerease reaction is in particular less than 5 μM.

Regarding `CCN(CC)CCN1CCN(c2nc(Nc3ccc4nc(C)cc(N)c4c3)nc(Nc3ccc4nc(C)cc(N)c4c3)n2)CC1` [Example 44], in assay [1], the “G4 delta Tm” value is 17 °C. In assay [2], the 50% inhibitory concentration (IC50) amounted to 100 nM.

With `Cc1cc(N)c2cc(Nc3nc(NCCN4CCCCC4)nc(Nc4ccc5nc(C)cc(N)c5c4)n3)ccc2n1` [Example 90], the “G4 delta Tm” value in assay [1] was 11 °C. Moreover, the 50% inhibitory concentration (IC50) in assay [2] came out at 370 nM. As for `Cc1cc(N(C)C)c2cc(Nc3nc(NCC(O)CO)nc(Nc4ccc5nc(C)cc(N(C)C)c5c4)n3)ccc2n1` (stereo not shown) [Example 176], in assay [1], the “G4 delta Tm” value turned out to be 6 °C. Also, the IC50 in assay [2] came to 3000 nM. Take `Cc1cc(N)c2cc(Nc3nc(Nc4ccc5nc(C)cc(N)c5c4)nc(N4CCN(C)CC4)n3)ccc2n1` [Example 14]: in assay [1], the “G4 delta Tm” value was 4.4 °C. Besides, in assay [2], the IC50 was found to be 210 nM. Consider `Cc1cc(N)c2cc(Nc3nc(NCCO)nc(Nc4ccc5nc(C)cc(N)c5c4)n3)ccc2n1` [Example 158], for which the “G4 delta Tm” value in assay [1] was 8 °C. In assay [2], the IC50 worked out at 850 nM.

Turning to `Cc1cc(N)c2cc(Nc3nc(NCCCN(C)C)nc(Nc4ccccc4Cl)n3)ccc2n1` [Example 6], the IC50 in assay [2] was 3500 nM. As for `COC(=O)NCCNc1nc(Nc2ccc3nc(C)cc(N)c3c2)nc(Nc2ccc3nc(C)cc(N)c3c2)n1` [Example 38], the “G4 delta Tm” value in assay [1] stood at 9.5 °C. The IC50 in assay [2] was found to be 1000 nM. The corresponding values for `Cc1cc(N)c2cc(Nc3nc(NCCNC(C)C)nc(Nc4ccc5nc(C)cc(N)c5c4)n3)ccc2n1` [Example 91] are 7 °C and 370 nM.

On to `Cc1cc(N)c2cc(Nc3nc(Nc4ccc5nc(C)cc(N)c5c4)nc(N4CCCCC4CN4CCCCC4)n3)ccc2n1` (stereo not shown) [Example 70], for which, in assay [1], the “G4 delta Tm” value amounted to 9.5 °C. Further, the 50% inhibitory concentration (IC50) in assay [2] was 560 nM. For the molecule `Cc1cc(N)c2cc(Nc3nc(Nc4ccc5nc(C)cc(N)c5c4)nc(N4CCC(O)CC4)n3)ccc2n1` [Example 155], the “G4 delta Tm” value in assay [1] was found to be 14 °C. The IC50 in assay [2] is 390 nM. `Cc1cc(N(C)C)c2cc(Nc3nc(Nc4ccc5nc(C)cc(N(C)C)c5c4)nc(N4CCCC4)n3)ccc2n1` [Example 23]: the “G4 delta Tm” value in assay [1] was 9.2 °C. Further, the IC50 in assay [2] came to 3000 nM. Regarding `Cc1cc(N)c2cc(Nc3nc(Nc4ccc5ncccc5c4)nc(Nc4ccc5nc(C)cc(N)c5c4)n3)ccc2n1` [Example 96], the IC50 in assay [2] turned out to be 480 nM. Same read-out and setting: the figure for `Cc1cc(N)c2cc(Nc3nc(NCc4cccc5cnccc45)nc(Nc4ccc5nc(C)cc(N)c5c4)n3)ccc2n1` [Example 81] is 1400 nM. Same read-out and setting: the figure for `COCCNc1nc(Nc2ccc3nc(C)cc(N)c3c2)nc(Nc2ccc3nc(C)cc(N)c3c2)n1` [Example 84] is 2200 nM; for `CCOc1cc(Nc2nc(Nc3ccc4nc(C)cc(N)c4c3)nc(Nc3ccc4nc(C)cc(N)c4c3)n2)c2ncccc2c1` [Example 102] it is 570 nM. As to `Cc1cc(N)c2cc(Nc3nc(Nc4ccc5nc(C)cc(N)c5c4)nc(Nc4cccc5ncccc45)n3)ccc2n1` [Example 95], the 50% inhibitory concentration (IC50) in assay [2] stood at 930 nM.

`Cc1cc(N)c2cc(Nc3nc(Nc4ccc5nc(C)cc(N)c5c4)nc(Oc4ccccc4)n3)ccc2n1` [Example 29, 2,4-bis(4-amino-2-methylquinolin-6-yl)amino-6-phenoxy-[1,3,5]triazine]: the IC50 in assay [2] is 320 nM and 470 nM. The same measure, in the same setting: to `Cc1cc(N)c2cc(Nc3nc(Nc4ccc5nc(C)cc(N)c5c4)nc(Nc4cccc5cccnc45)n3)ccc2n1` [Example 97] belongs 690 nM; to `Cc1cc(N)c2cc(Nc3nc(Nc4ccc5nc(C)cc(N)c5c4)nc(Nc4nccc5ccccc45)n3)ccc2n1` [Example 87], 1500 nM; to `Cc1cc(N)c2cc(Nc3nc(Nc4ccc5ccccc5c4)nc(Nc4ccc5nc(C)cc(N)c5c4)n3)ccc2n1` [Example 79], 3600 nM.

As to `Cc1cc(N)c2cc(Nc3nc(Nc4ccc5nc(C)cc(N)c5c4)nc(Nc4cccc5nn[nH]c45)n3)ccc2n1` [Example 61], the IC50 in assay [2] was found to be 360 nM.

As for `Cc1cc(N)c2cc(Nc3nc(Nc4ccc5nc(C)cc(N)c5c4)nc(Nc4cc5ccccc5cn4)n3)ccc2n1` [Example 100], the IC50 in assay [2] amounted to 450 nM. For `Cc1cc(N)c2cc(Nc3nc(Nc4ccc5nc(C)cc(N)c5c4)nc(Sc4ccc5ccccc5c4)n3)ccc2n1` [Example 116], the IC50 in assay [2] stood at 1800 nM. For the molecule `Cc1cc(N)c2cc(Nc3nc(Nc4ccc5nc(C)cc(N)c5c4)nc(Sc4ncccn4)n3)ccc2n1` [Example 121], the IC50 in assay [2] is 400 nM and 360 nM. As to `Cc1cc2c(Nc3nc(Nc4ccc5nc(C)cc(N)c5c4)nc(Nc4ccc5nc(C)cc(N)c5c4)n3)cccc2cn1` [Example 101], the IC50 in assay [2] turned out to be 810 nM.

With `COc1cccc(Nc2nc(Nc3ccc4nc(C)cc(N)c4c3)nc(Nc3ccc4nc(C)cc(N)c4c3)n2)c1` [Example 82], the IC50 in assay [2] stood at 1600 nM. For `Cc1cc(N)c2cc(Nc3nc(Nc4ccc5nc(C)cc(N)c5c4)nc(Nc4ncccn4)n3)ccc2n1` [Example 94], the IC50 in assay [2] was 940 nM. Consider `Cc1cc(N)c2cc(Nc3nc(NCc4cccc5ccccc45)nc(Nc4ccc5nc(C)cc(N)c5c4)n3)ccc2n1` [Example 78], for which the IC50 in assay [2] worked out at 1500 nM. Regarding `Cc1cc(N)c2cc(Nc3nc(NCCN4CCOCC4)nc(Nc4ccc5nc(C)cc(N)c5c4)n3)ccc2n1` [Example 80], in assay [2], the IC50 was found to be 1200 nM. `Cc1cc(N)c2cc(Nc3nc(Nc4ccc5nc(C)cc(N)c5c4)nc(Nc4ccc5c6c(cccc46)CC5)n3)ccc2n1` [Example 99]: the IC50 in assay [2] came to 600 nM.
